Measurements published in patent US20070197509A1, “Compositions and methods for modulating gated ion channels” (PainCeptor Pharma Corporation, priority 2005, published 2007).
pIC50: −log10 of the molar value. Entries after “also recorded” stand apart in the source; their conditions may differ.

How the values were obtained:
[1] = molecular target: T1, hASIC1a (Homo sapiens, UniProt P78348); test: FlexStation/FLIPR calcium-imaging assay, acid (MES)-induced response in ASIC1a expressing cells; format: cell-based; parameters: expressed in transfected cells; conditions: for pIC50: calcium mobilization assay, HEK293, n=3-7, read-out: FPAT-ASIC1a human/HEK293/k21 IC50
T1 sequence (P78348 1-528): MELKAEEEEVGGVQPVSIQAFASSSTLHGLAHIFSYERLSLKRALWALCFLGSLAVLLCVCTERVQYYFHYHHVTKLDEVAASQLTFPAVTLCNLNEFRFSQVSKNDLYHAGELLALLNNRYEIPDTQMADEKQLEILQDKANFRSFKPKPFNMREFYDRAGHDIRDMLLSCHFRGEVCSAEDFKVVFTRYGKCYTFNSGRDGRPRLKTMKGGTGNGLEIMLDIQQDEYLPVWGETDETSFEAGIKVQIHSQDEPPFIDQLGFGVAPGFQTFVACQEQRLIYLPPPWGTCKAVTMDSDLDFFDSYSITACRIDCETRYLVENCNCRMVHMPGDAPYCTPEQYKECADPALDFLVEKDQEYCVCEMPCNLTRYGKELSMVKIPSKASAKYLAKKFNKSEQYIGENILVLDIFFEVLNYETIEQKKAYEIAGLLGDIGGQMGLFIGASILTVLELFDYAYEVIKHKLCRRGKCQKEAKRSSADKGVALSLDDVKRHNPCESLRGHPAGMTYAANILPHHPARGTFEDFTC
Experimental: Identification of ASIC Antagonists Using Calcium-Imaging
ASIC1a expressing HEK293 or CHO cells are grown in culture medium (DMEM with 10% FBS), in polystyrene culture flasks ([…]) at 37° C. in a humidified atmosphere of 5% CO2. Confluency of cells should be 80-90% on day of plating. Cells are rinsed with 10 ml of PBS and re-suspended by addition of culture medium and trituration with a 25 ml pipette.
The cells are seeded at a density of approximately 1×10^5 cells/ml for HEK293 and 8×10^4 for CHO cells (100 μl/well) in black-walled, clear bottom, poly-D-lysin pre-treated 96-well plates. Plated cells were allowed to proliferate for 48 h before loading with dye.
Fluo-4/AM (1 mg, Molecular Probes) is dissolved in 912 μl DMSO. The Fluo-4/AM stock solution (1 mM) is diluted with culture medium to a final concentration of 2 μM (loading solution).
The culture medium is aspirated from the wells, and 80 μl of the Fluo-4/AM loading solution is added to each well. The cells are incubated at 37° C. for 30 min. When CHO cells are used, probenicid at 2.5 mM (final concentration) is added in the loading solution.
After the loading period (15-20 min., the loading solution is aspirated and the cells are washed twice with 100 μl modified Assay Buffer (145 mM NaCl, 5 mM KCl, 5 mM CaCl2, 1 mM MgCl2, 10 mM HEPES, pH 7.4) to remove extracellular dye. Following the second wash, 100 μl modified Assay Buffer is added to each well and the fluorescence is measured in FLIPR™ or FlexStation™ (Molecular Devices, USA), or any other suitable equipment known to the skilled in the art. When CHO cells are used, probenicid at 2.5 mM (final concentration) is added in the wash buffer.
First addition: 50 μl test solution at a rate of 26 μl/sec and a starting height of 125 μl
Second addition: 50 μl MES solution (20 mM, 5 mM final concentration) at a rate of 26 μl/sec and a starting height of 115 μl.
Reading intervals: pre-incubation—120 sec. antagonist phase, addition of MES at 145 sec. and reading time with agonist 100 sec (total run time of 240 sec).
Fluorescence obtained after stimulation is corrected for the mean basal fluorescence (in modified Assay Buffer).
The MES-induced peak calcium response (or change in membrane potential), in the presence of test substance, is expressed relative to the MES response alone. Test substances that block the MES-induced calcium response (or change in membrane potential) are re-tested in triplicates. Confirmed hits are picked for further characterization by performing full dose-response curves to determine potency of each hit compound as represented by the IC50 values (i.e., the concentration of the test substance which inhibits 50% of the MES-induced calcium and/or membrane potentiation response; see, for example, FIG. 1).

[2] = molecular target: T1, hASIC1a; test: Two-electrode voltage clamp in Xenopus laevis oocytes expressing hASIC1a (OpusExpress); format: cell-based; parameters: expressed in transfected cells; host or cells: Xenopus laevis oocytes, nuclear microinjection of cDNA (e.g. in pCDNA3); conditions: for effect on hASIC1a current evoked by pH 6.5 in oocytes (FIGS. 4A-4D): OpusExpress, two-electrode voltage clamp, dose-response
Summary of the method: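 Two-electrode voltage clamp on Xenopus oocytes expressing homomeric hASIC1a, recorded on an automated multichannel system. Oocytes superfused with Ringer (HEPES, pH 7.4); currents evoked by MES-buffered acidic Ringer, with compound present in both control and acidic solutions, at room temperature.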

With `COc1ccc(C(=O)CN2CCN(c3cc(C)nc4ccccc34)CC2)cc1` [Compound A, 1-(4-methoxy-phenyl)-2-[4-(2-methyl-quinolin-4-yl)-piperazin-1-yl]-ethanone] the pIC50 [1] was over 5.00 and the “effect on hASIC1a current evoked by pH 6.5 in oocytes (FIGS. 4A-4D)” value (“effect on hASIC1a current evoked” for short) [2] was “effective modulators”.
In the case of `Fc1cccc2c(OC3CCN(Cc4ccccc4)CC3)cc(C(F)(F)F)nc12` [Compound B, 4-(1-benzyl-piperidin-4-yloxy)-8-fluoro-2-trifluoromethyl-quinoline], the pIC50 [1] was over 5.00 and the “effect on hASIC1a current evoked” value [2] was “dose-dependent reduction”.
`Cc1cc(OC2CCN(Cc3ccccc3)CC2)c2ccccc2n1` [Compound R, 4-(1-benzyl-piperidin-4-yloxy)-2-methyl-quinoline] was tested, and the IC50 ([1]; FlexStation (Flex), Tables A-F, read-out: Biological Data (IC50 uM) h1a (Flex)) was 15 to 25 µM, the “inhibitory effect on acid-induced hASIC1a activity (FIG. 1)” value ([1]; HEK-293 transiently expressing hASIC1a, intracellular calcium, increasing concentrations) was “dose-dependently inhibited” and the IC50 ([2]; OpusExpress (OX), Tables A-F, h1a printed in some cells only, read-out: Biological Data (IC50 uM) h1a (OX)) was 2 to 10 µM. For the same molecule, the “effect on hASIC1a current evoked” value [2] was “effective modulators; also recorded: dose-dependent reduction” and the IC50 ([2]; Table H, read-out: IC50 (μM) Opus Express (h1a)) was 1.5 µM.
